From article PMC10489750, “Exploration of Baicalein-Core Derivatives as Potent Antifungal Agents: SAR and Mechanism Insights” (Molecules, 2023)

Target: T1, Eno1 (Candida albicans, UniProt P30575)
T1 sequence (P30575 1-440): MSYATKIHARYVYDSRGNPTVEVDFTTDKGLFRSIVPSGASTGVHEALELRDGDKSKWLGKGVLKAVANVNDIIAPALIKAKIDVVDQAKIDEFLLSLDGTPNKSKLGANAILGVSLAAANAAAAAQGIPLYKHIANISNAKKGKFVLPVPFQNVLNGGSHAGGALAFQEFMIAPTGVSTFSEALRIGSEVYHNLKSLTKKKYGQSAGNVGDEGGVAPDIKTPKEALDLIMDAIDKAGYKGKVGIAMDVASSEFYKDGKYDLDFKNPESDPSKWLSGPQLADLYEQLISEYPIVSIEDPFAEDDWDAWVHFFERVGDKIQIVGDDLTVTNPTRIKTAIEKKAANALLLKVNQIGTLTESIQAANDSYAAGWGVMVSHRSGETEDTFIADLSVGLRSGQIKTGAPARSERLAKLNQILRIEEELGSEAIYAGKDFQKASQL
Assay: in vitro enolase assay, […] compound, absorbance at […] nm, […] Eno1
Format: biochemical

**Q.** How did the “in vitro enolase assay, 200 μM compound, absorbance at 240 nm, 30 nM Eno1” value turn out when `Nc1ccc(-c2cc(=O)c3c(O)c(O)c(O)cc3o2)cc1` [B5, 2-(4-aminophenyl)-5,6,7-trihydroxy-4H-chromen-4-one] was run?
**A.** B5 exhibited some inhibitory ability in in vitro enzyme inhibition assay, although it was weaker than BE
